One test has as its target MLK3 (Homo sapiens (Human), UniProt Q16584). Nature of the test: Evaluation of inhibitory activity of enzyme units, MLK3 ([γ-33P]-ATP filter assay). The following applies: read-out: IC50(nM) MLK3.
The test system of test [1] is acute lymphoblastic leukemia cell line Jurkat. Nature of the test: Cancer cell proliferation inhibitory activity evaluation 2 (CCK-8), Jurkat. It counts as cell-based. As to conditions: Homo sapiens. As to the method:
(§1) In order to identify whether the compounds have anticancer activity, the acute myeloid leukemia cell line U937, the acute lymphoblastic leukemia cell line Jurkat, the gastric cancer cell lines AGS, […], and the human lung cancer cell line A549 were used. The cell line was cultured using RPMI-1640 medium (U937, Jurkat, AGS, A549) or DMEM (Hs746T) medium containing 10% fetal bovine serum. Welgene products were used as the medium, and hyclone products were used for fetal bovine serum, and 1% of antibiotics for cell culture from Gibco were used as the culture medium.

For test [2], the system named is human lung cancer cell line A549. Nature of the test: Cancer cell proliferation inhibitory activity evaluation 2 (CCK-8), A549. It counts as cell-based. The method, then: as §1
Test [3] deals with acute myeloid leukemia cell line U937. Nature of the test: Cancer cell proliferation inhibitory activity evaluation 2 (CCK-8), U937. The following applies: Homo sapiens, read-out: Cancer cell proliferation inhibitory activity U937. It counts as cell-based. The method, then:
as §1

Test [4] concerns gastric cancer cell line Hs746T. Nature of the test: Cancer cell proliferation inhibitory activity evaluation 2 (CCK-8), Hs746T. It counts as cell-based. As to conditions: Homo sapiens. As to the method: as §1
Another test addresses MLK1 (Homo sapiens (Human), UniProt P80192). Nature of the test: Evaluation of inhibitory activity of enzyme units, MLK1 ([γ-33P]-ATP filter assay). It counts as biochemical.
The test system of test [5] is gastric cancer cell line AGS. Nature of the test: Cancer cell proliferation inhibitory activity evaluation 2 (CCK-8), AGS. It counts as cell-based. As to conditions: Homo sapiens, read-out: Cancer cell proliferation inhibitory activity AGS. As to the method:
as §1

Setting [6] is: 10 μM, 72 hours, CCK-8, read-out: Cancer cell proliferation inhibitory activity Jurkat.
Setting [7] is: A549, 10 μM, 72 hours, CCK-8, read-out: Cancer cell proliferation inhibitory activity A549.
Where [8] appears, read: U-937, 10 μM, 72 hours, CCK-8 (Table 3).
Setting [9] is: 10 μM, 72 hours, CCK-8, read-out: Cancer cell proliferation inhibitory activity Hs746T.
Where [10] appears, read: 72 h, read-out: Cancer cell proliferation inhibitory activity Jurkat.
The mark [11] stands for this setting: A549, 72 h, read-out: Cancer cell proliferation inhibitory activity A549.
Where [12] appears, read: 72 h, read-out: Cancer cell proliferation inhibitory activity Hs746T.

Here are results for 13 molecules from patent US12545673B2, “Imidazopyridine derivative and pharmaceutical composition comprising same as active ingredient” (TSD LIFE SCIENCES CO., LTD., priority 2019, dated 2026).

Usually IC50 stands for the concentration needed to halve the response being measured.

Where two headings read alike, the source gives them in different places.

Sequence of MLK3 (Q16584 whole entry, looked up): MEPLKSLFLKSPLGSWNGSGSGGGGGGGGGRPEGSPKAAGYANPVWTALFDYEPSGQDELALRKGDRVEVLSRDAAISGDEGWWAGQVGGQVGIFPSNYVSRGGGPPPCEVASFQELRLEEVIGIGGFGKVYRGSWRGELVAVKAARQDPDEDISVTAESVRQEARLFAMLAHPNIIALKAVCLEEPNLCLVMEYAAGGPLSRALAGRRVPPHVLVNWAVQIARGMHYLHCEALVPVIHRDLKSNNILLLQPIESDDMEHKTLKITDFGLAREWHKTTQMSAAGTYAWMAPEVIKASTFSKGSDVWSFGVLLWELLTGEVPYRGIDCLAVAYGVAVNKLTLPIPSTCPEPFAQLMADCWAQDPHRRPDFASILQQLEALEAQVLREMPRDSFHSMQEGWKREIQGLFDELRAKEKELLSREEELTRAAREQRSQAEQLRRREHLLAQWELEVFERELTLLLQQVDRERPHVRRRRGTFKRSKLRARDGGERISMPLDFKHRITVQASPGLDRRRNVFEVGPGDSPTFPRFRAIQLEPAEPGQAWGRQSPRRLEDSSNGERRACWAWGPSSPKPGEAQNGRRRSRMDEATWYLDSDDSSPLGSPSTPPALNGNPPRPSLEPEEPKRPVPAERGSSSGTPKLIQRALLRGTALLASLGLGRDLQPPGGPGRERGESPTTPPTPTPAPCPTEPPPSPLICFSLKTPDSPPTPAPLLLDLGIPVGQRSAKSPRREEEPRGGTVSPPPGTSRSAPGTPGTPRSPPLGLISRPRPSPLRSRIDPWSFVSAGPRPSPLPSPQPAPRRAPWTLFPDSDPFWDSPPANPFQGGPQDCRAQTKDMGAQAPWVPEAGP
Sequence of MLK1 (P80192 whole entry, looked up): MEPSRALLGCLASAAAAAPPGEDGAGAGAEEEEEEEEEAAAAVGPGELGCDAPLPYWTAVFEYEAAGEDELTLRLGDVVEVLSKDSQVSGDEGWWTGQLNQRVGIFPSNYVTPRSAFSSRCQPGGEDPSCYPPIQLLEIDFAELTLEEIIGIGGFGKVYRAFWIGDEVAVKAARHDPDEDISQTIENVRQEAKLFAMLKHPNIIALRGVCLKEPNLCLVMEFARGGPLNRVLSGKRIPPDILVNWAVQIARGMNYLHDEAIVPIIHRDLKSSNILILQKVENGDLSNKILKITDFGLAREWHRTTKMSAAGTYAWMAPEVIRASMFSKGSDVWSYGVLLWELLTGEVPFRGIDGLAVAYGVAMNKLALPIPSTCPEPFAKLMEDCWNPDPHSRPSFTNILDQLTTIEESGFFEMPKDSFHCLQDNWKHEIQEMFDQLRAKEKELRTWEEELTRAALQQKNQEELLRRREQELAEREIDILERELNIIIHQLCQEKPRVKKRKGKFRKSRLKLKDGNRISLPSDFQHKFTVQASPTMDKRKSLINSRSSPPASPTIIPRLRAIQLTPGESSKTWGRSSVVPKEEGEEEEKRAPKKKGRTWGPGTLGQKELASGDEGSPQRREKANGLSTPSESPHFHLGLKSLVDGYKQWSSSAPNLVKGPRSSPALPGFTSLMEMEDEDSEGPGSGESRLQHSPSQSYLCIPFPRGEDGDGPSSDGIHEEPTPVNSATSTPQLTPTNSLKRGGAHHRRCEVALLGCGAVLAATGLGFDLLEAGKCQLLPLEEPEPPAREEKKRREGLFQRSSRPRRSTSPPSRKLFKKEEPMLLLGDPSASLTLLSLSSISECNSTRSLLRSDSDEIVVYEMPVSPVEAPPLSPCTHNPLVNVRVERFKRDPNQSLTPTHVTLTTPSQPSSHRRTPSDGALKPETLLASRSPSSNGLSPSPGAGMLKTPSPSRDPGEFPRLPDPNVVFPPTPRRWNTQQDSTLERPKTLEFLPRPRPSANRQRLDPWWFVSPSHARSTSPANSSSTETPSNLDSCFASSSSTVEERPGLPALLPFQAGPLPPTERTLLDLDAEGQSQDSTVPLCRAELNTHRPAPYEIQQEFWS

On to `CCS(=O)(=O)N1CC[C@H](Nc2c(Cl)cnc3[nH]c(-c4cc(C)n(-c5cc(NS(C)(=O)=O)ccc5C)c4C)nc23)C1` [Example 51, N-(3-(3-(6-chloro-7-(((S)-1-(ethylsulfonyl)pyrrolidine-3-yl)amino)-3H-imidazo[4,5-b]pyridine-2-yl)-2,5-dimethyl-1H-pyrrol-1-yl)-4-methylphenyl) methanesulfonamide], for which the 50% inhibitory concentration (IC50) on MLK3 stood at 330 nM; against MLK1 it was 53 nM. For the same molecule, the inhibition at 10 µM is greater than 50% in test [1] (setting [6]), 10 to 50% in test [2] (setting [7]), greater than 50% in test [3] (setting [8]) and greater than 50% in test [4] (setting [9]).

For `CCS(=O)(=O)N1CC[C@H](Nc2c(Cl)cnc3nc(-c4cc(C)n(-c5ccc(OCCN6CCOCC6)cc5)c4C)[nH]c23)C1` [Example 52, (S)-6-chloro-2-(2,5-dimethyl-1-(4-(2-morpholinoethoxy)phenyl)-1H-pyrrol-3-yl)-N-(1-(ethylsulfonyl)pyrrolidine-3-yl)-1H-imidazo[4,5-b]pyridine-7-amine], the IC50 on MLK3 was determined as 324 nM; on MLK1, 87 nM. The inhibition at 10 µM is greater than 50% in test [1] (setting [6]), 10 to 50% in test [2] (setting [7]), greater than 50% in test [3] (setting [8]) and greater than 50% in test [4] (setting [9]).

Turning to `CCN(CC)CCNC(=O)c1ccc(-n2c(C)cc(-c3nc4ncc(Br)c(N[C@H]5CCN(S(=O)(=O)CC)C5)c4[nH]3)c2C)cc1` [Example 57, (S)-4-(3-(6-bromo-7-((1-(ethylsulfonyl)pyrrolidine-3-yl)amino)-1H-imidazo[4,5-b]pyridine-2-yl)-2,5-dimethyl-1H-pyrrol-1-yl)-N-(2-(diethylamino)ethyl)benzamide], the IC50 at MLK3 was 97 nM. Further, the inhibition at 10 µM in test [1] (setting [10]) is greater than 50%; in test [5] (72 h), greater than 50%; in test [2] (setting [11]), greater than 50%; in test [3] (U-937, 72 h) it was greater than 50%; in test [4] (setting [12]), greater than 50%.

With `CCS(=O)(=O)N1CC[C@H](Nc2c(Br)cnc3[nH]c(-c4cc(C)n(-c5ccc(C(=O)O)cc5)c4C)nc23)C1` [Example 59, (S)-4-(3-(6-bromo-7-((1-(ethylsulfonyl)pyrrolidine-3-yl)amino)-3H-imidazo[4,5-b]pyridine-2-yl)-2,5-dimethyl-1H-pyrrol-1-yl)benzoic acid], on MLK3, the concentration for half-maximal inhibition (IC50) came to 19 nM. Further, the inhibition at 10 µM was 10 to 50% in test [1] (setting [10]); less than 10% in test [5] (72 h); less than 10% in test [2] (setting [11]); 10 to 50% in test [3] (U-937, 72 h); 10 to 50% in test [4] (setting [12]).

For the molecule `CCS(=O)(=O)N1CC[C@H](Nc2c(Br)cnc3[nH]c(-c4cc(C)n(-c5cccc(C(=O)NCN(C)C)c5)c4C)nc23)C1` [Example 60, (S)-3-(3-(6-bromo-7-((1-(ethylsulfonyl)pyrrolidine-3-yl)amino)-3H-imidazo[4,5-b]pyridine-2-yl)-2,5-dimethyl-1H-pyrrol-1-yl)-N-((dimethylamino)methyl)benzamide], the half-maximal inhibitory concentration (IC50) on MLK3 amounted to 27 nM. For the same molecule, the inhibition at 10 µM in test [1] (setting [10]) is greater than 50%; in test [5] (72 h), greater than 50%; in test [2] (setting [11]), greater than 50%; in test [3] (U-937, 72 h), greater than 50%; in test [4] (setting [12]) it was greater than 50%.

Take `CCS(=O)(=O)N1CC[C@H](Nc2c(Br)cnc3[nH]c(-c4cc(C)n(-c5cccc(C(=O)N(C)CCN(C)C)c5)c4C)nc23)C1` [Example 61, (S)-3-(3-(6-bromo-7-((1-(ethylsulfonyl)pyrrolidine-3-yl)amino)-3H-imidazo[4,5-b]pyridine-2-yl)-2,5-dimethyl-1H-pyrrol-1-yl)-N-(2-(dimethylamino)ethyl)-N-methylbenzamide]: the concentration for half-maximal inhibition (IC50) at MLK3 is 30 nM; against MLK1, 19 nM. Further, the inhibition at 10 µM was greater than 50% in test [1] (setting [10]); greater than 50% in test [5] (72 h); greater than 50% in test [2] (setting [11]); greater than 50% in test [3] (U-937, 72 h); greater than 50% in test [4] (setting [12]).

Turning to `CCS(=O)(=O)N1CC[C@H](Nc2c(Br)cnc3nc(-c4cc(C)n(-c5cccc(NC(=O)CN(C)C)c5)c4C)[nH]c23)C1` [Example 64, (S)—N-(3-(3-(6-bromo-7-((1-(ethylsulfonyl)pyrrolidine-3-yl)amino)-1H-imidazo[4,5-b]pyridine-2-yl)-2,5-dimethyl-1H-pyrrol-1-yl)phenyl)-2-(dimethylamino) acetamide], the figures for the half-maximal inhibitory concentration (IC50) at MLK3 and against MLK1 were 14 nM and 34 nM, respectively. For the same molecule, the inhibition at 10 µM in test [1] (setting [10]) is greater than 50%; in test [5] (72 h) it was greater than 50%; in test [2] (setting [11]) it was greater than 50%; in test [3] (U-937, 72 h) it was greater than 50%; in test [4] (setting [12]), greater than 50%.

On to `CCS(=O)(=O)N1CC[C@H](Nc2c(Br)cnc3nc(-c4cc(C)n(-c5cccc(NC(=O)CN6CCN(C)CC6)c5)c4C)[nH]c23)C1` [Example 65], for which the results for the IC50 at MLK3 and on MLK1 were 26 nM and 42 nM, respectively. In addition, the inhibition at 10 µM in test [1] (setting [10]) is greater than 50%; in test [5] (72 h), greater than 50%; in test [2] (setting [11]) it was less than 10%; in test [3] (U-937, 72 h), greater than 50%; in test [4] (setting [12]), greater than 50%.

For the molecule `CCS(=O)(=O)N1CC[C@H](Nc2c(Br)cnc3nc(-c4cc(C)n(-c5cccc(NC(=O)CN6CCOCC6)c5)c4C)[nH]c23)C1` [Example 66, (S)—N-(3-(3-(6-bromo-7-((1-(ethylsulfonyl)pyrrolidine-3-yl)amino)-1H-imidazo[4,5-b]pyridine-2-yl)-2,5-dimethyl-1H-pyrrol-1-yl)phenyl)-2-morpholinoacetamide], the half-inhibitory concentration (IC50) on MLK3 is 17 nM; against MLK1 it was 22 nM. Also, the inhibition at 10 µM in test [1] (setting [10]) was greater than 50%; in test [5] (72 h), greater than 50%; in test [2] (setting [11]) it was 10 to 50%; in test [3] (U-937, 72 h), 10 to 50%; in test [4] (setting [12]), greater than 50%.

Consider `CCS(=O)(=O)N1CC[C@H](Nc2c(Br)cnc3nc(-c4cc(C)n(-c5ccc(C(=O)N6CCN(C)CC6)cc5)c4C)[nH]c23)C1` [Example 67, (S)-(4-(3-(6-bromo-7-((1-(ethylsulfonyl)pyrrolidine-3-yl)amino)-1H-imidazo[4,5-b]pyridine-2-yl)-2,5-dimethyl-1H-pyrrol-1-yl)phenyl) (4-methylpiperazine-1-yl) methanone], for which the results for the IC50 on MLK3 and against MLK1 were 19 nM and 32 nM, respectively. The inhibition at 10 µM in test [1] (setting [10]) was greater than 50%; in test [5] (72 h) it was greater than 50%; in test [2] (setting [11]), 10 to 50%; in test [3] (U-937, 72 h) it was greater than 50%; in test [4] (setting [12]) it was 10 to 50%.

For the molecule `CCS(=O)(=O)N1CC[C@H](Nc2c(Br)cnc3nc(-c4cc(C)n(-c5cccc(C(=O)N6CCN(C)CC6)c5)c4C)[nH]c23)C1` [Example 68], the IC50 on MLK3 was found to be 16 nM; against MLK1 it was 25 nM. Also, the inhibition at 10 µM was greater than 50% in test [1] (setting [10]); greater than 50% in test [5] (72 h); greater than 50% in test [2] (setting [11]); greater than 50% in test [3] (U-937, 72 h); greater than 50% in test [4] (setting [12]).

For the molecule `CCS(=O)(=O)N1CC[C@H](Nc2c(Br)cnc3[nH]c(-c4cc(C)n(-c5cccc(C(=O)NCCN6CCOCC6)c5)c4C)nc23)C1` [Example 69, (S)-3-(3-(6-bromo-7-((1-(ethylsulfonyl)pyrrolidine-3-yl)amino)-3H-imidazo[4,5-b]pyridine-2-yl)-2,5-dimethyl-1H-pyrrol-1-yl)-N-(2-morpholinoethyl)benzamide], the IC50 was 13 nM at MLK3 and 22 nM on MLK1. For the same molecule, the inhibition at 10 µM was greater than 50% in test [1] (setting [10]); greater than 50% in test [5] (72 h); 10 to 50% in test [2] (setting [11]); greater than 50% in test [3] (U-937, 72 h); 10 to 50% in test [4] (setting [12]).

On to `CCS(=O)(=O)N1CC[C@H](Nc2c(Br)cnc3[nH]c(-c4cc(C)n(-c5ccc(C(=O)NCCN6CCOCC6)cc5)c4C)nc23)C1` [Example 70, (S)-4-(3-(6-bromo-7-((1-(ethylsulfonyl)pyrrolidine-3-yl)amino)-3H-imidazo[4,5-b]pyridine-2-yl)-2,5-dimethyl-1H-pyrrol-1-yl)-N-(2-morpholinoethyl)benzamide], for which the IC50 was found to be 18 nM at MLK3 and 36 nM at MLK1. Moreover, the inhibition at 10 µM in test [1] (setting [6]) was greater than 50%; in test [5] (10 μM, 72 hours, CCK-8), greater than 50%; in test [2] (setting [7]), 10 to 50%; in test [3] (setting [8]), greater than 50%; in test [4] (setting [9]) it was 10 to 50%.
